Test results from ChEMBL document CHEMBL5136990, “Histone deacetylase 6 inhibitors with blood-brain barrier penetration as a potential strategy for CNS-Disorders therapy” (Eur J Med Chem, 2022).
Values belong to the molecule of their own block, whether it stands above or below them.

Key:
[1] = biological target: cGMP-specific 3',5'-cyclic phosphodiesterase (Homo sapiens, UniProt O76074); experiment: Inhibition of PDE5 (unknown origin)
[2] = biological target: T1, Protein deacetylase HDAC6 (Homo sapiens, UniProt Q9UBN7); experiment: Inhibition of HDAC6 (unknown origin)
T1 sequence (Q9UBN7 whole entry): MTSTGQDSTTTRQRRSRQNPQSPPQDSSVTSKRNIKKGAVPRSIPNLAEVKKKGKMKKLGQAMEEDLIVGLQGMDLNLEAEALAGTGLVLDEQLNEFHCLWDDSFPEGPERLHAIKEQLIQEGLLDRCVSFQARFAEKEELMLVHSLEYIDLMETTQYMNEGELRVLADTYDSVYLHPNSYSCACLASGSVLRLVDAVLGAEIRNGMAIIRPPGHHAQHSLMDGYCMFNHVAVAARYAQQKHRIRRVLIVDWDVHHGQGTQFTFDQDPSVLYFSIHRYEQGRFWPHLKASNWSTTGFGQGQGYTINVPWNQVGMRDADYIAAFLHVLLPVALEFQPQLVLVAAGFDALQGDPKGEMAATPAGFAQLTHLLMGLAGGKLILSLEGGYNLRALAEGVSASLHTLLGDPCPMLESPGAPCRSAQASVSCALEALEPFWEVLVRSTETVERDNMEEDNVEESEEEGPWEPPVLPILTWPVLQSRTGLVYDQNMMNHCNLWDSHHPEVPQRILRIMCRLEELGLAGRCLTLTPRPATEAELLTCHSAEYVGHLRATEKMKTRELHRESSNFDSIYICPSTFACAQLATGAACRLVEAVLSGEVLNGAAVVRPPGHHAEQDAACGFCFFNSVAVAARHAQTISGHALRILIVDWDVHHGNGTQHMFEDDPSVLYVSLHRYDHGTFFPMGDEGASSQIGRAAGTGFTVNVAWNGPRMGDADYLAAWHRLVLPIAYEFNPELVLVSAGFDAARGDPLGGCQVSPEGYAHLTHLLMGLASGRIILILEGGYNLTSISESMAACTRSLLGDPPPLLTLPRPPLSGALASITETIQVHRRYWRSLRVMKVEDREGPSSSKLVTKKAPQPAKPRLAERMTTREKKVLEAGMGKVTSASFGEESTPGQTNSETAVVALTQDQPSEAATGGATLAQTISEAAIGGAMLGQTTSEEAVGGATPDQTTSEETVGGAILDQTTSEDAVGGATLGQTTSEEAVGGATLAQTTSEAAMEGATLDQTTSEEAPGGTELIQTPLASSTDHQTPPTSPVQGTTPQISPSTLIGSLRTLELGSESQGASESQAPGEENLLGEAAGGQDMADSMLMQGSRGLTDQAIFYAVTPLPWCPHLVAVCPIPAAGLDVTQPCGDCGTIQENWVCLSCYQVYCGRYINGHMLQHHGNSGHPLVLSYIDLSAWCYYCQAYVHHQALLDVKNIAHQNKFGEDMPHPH

[3] = biological target: High affinity cGMP-specific 3',5'-cyclic phosphodiesterase 9A (Homo sapiens, UniProt O76083); experiment: Inhibition of PDE9 (unknown origin)
High affinity cGMP-specific 3',5'-cyclic phosphodiesterase 9A, sequence (O76083 whole entry): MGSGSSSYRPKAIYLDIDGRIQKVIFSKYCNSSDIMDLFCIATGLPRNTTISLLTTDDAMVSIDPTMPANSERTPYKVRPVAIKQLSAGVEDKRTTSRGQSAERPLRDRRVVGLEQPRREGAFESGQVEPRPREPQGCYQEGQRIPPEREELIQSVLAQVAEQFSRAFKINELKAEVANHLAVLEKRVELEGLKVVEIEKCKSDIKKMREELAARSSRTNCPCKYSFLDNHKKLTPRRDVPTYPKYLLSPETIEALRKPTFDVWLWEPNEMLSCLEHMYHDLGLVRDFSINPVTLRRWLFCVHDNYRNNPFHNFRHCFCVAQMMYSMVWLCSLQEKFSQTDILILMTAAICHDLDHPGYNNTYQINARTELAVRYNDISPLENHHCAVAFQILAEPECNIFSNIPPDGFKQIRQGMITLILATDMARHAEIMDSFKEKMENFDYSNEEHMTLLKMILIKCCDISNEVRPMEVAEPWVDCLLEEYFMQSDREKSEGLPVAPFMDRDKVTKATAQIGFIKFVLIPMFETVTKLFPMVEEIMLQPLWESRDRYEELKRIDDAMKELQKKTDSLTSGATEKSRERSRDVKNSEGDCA

Histone deacetylase 2 [4] = biological target: T2, Histone deacetylase 2 (Homo sapiens, UniProt Q92769); experiment: Inhibition of HDAC2 (unknown origin)
T2 sequence (Q92769 whole entry): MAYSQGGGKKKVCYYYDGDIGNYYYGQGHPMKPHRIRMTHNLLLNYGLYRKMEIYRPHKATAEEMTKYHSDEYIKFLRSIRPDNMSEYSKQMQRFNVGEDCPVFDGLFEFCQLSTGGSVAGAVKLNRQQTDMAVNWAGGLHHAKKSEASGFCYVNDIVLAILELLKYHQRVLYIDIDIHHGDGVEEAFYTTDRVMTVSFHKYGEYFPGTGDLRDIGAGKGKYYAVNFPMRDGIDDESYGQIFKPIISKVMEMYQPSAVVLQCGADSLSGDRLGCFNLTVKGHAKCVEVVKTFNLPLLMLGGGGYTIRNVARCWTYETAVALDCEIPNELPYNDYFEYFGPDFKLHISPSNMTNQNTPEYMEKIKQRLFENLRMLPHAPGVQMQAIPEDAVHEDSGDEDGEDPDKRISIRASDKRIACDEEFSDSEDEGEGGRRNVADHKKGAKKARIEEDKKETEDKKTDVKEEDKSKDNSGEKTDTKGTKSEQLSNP

Histone deacetylase 1 [5] = biological target: T3, Histone deacetylase 1 (Homo sapiens, UniProt Q13547); experiment: Inhibition of HDAC1 (unknown origin)
T3 sequence (Q13547 whole entry): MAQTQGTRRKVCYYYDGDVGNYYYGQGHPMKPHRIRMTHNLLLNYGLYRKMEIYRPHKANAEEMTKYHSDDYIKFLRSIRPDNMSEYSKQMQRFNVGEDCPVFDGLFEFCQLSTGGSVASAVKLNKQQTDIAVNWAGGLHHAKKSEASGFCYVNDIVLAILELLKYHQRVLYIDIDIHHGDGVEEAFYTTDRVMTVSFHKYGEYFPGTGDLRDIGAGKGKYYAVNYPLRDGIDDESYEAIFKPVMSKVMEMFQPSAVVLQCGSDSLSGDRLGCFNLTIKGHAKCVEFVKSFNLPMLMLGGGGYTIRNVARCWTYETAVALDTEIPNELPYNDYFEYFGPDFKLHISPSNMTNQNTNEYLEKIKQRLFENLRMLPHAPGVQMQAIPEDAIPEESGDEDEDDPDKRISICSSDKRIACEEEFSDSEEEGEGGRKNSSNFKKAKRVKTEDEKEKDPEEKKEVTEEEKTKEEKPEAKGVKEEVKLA

[6] = Inhibition of full-length recombinant human HDAC3/NcoR2 using RHKKAc peptide as substrate by fluorescence based assay
Histone deacetylase 2 [7] = biological target: T2, Histone deacetylase 2; experiment: Inhibition of recombinant human HDAC2 using fluorogenic substrate
Histone deacetylase 1 [8] = biological target: T3, Histone deacetylase 1; experiment: Inhibition of recombinant human HDAC1 using fluorogenic substrate
Histone deacetylase 3 = Histone deacetylase 3 (Homo sapiens, UniProt O15379); experiment: Inhibition of recombinant human HDAC3 using fluorogenic substrate
Histone deacetylase 3, sequence (O15379 whole entry): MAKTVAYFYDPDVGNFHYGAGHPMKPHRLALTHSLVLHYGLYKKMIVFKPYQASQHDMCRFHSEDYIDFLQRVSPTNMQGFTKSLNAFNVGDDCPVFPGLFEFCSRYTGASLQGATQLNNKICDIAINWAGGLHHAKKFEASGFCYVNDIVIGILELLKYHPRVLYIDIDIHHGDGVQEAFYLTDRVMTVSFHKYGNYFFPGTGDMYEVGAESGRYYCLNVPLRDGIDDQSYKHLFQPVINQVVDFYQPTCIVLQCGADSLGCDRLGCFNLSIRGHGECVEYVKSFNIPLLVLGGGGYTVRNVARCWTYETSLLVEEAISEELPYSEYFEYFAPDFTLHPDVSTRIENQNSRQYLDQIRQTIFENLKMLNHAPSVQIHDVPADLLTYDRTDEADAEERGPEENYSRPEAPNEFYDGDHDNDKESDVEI

[9] = biological target: T4, Polyamine deacetylase HDAC10 (Homo sapiens, UniProt Q969S8); experiment: Inhibition of recombinant human HDAC10 using fluorogenic substrate
T4 sequence (Q969S8 whole entry): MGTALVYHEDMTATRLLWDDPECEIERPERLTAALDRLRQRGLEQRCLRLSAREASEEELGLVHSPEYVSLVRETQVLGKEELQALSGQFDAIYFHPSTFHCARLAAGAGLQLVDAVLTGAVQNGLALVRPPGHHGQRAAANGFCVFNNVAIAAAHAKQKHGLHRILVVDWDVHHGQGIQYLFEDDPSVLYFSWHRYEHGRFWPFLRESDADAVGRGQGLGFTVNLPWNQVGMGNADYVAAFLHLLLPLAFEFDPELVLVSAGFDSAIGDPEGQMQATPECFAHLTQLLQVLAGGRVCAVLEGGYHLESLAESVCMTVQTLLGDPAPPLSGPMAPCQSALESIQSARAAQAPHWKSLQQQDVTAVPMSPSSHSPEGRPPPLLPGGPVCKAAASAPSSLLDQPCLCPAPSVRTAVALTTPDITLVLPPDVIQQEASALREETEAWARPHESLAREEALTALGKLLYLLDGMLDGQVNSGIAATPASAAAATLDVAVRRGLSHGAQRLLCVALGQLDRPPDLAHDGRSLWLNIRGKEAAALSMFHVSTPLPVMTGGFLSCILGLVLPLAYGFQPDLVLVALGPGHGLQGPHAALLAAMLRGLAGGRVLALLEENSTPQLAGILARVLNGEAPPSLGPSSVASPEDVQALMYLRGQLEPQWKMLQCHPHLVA

IC50 [1]: > 10 µM
IC50 [2]: 0.04 µM
IC50 [3]: 0.107 µM
IC50 (Histone deacetylase 2 [4]): 3.53 µM
IC50 (Histone deacetylase 1 [5]): 0.593 µM
SMILES: C[C@@H]1CN(Cc2ccc(C(=O)NO)cc2)C[C@H]1c1nc2c(cnn2C2CCCC2)c(=O)[nH]1

IC50 [6]: 29.5 µM
SMILES: O=C(NO)c1ccc(CN2CCCc3cc(Cl)ccc32)cc1

IC50 (Histone deacetylase 2 [7]): > 10 µM
IC50 (Histone deacetylase 1 [8]): > 10 µM
IC50 (Histone deacetylase 3): > 10 µM
IC50 [9]: > 10 µM
SMILES: CN(Cc1ccc(C(=O)NO)cc1[18F])CC12CC3CC(CC(C3)C1)C2
